Source: patent publication US9550764B2, “Fused heterocyclic compounds and their use” (The Institute of Cancer Research: Royal Cancer Hospital, priority 2012, dated 2017)
Read-outs that look alike come from different tables or passages of the source.

How the values were obtained:
TOV21G (NA) = experiment: SRB proliferation assay, TOV21G (non-amplified control); format: cell-based; conditions: Homo sapiens, 120 h, 5-day incubation, control not amplified (NA)
Source text: (§1) All cell lines were obtained from ATCC except KPL1 which was obtained from Leibniz Institute DSMZ-German Collection of Microorganisms and Cell Cultures, and SMOV2 which was obtained from Dr. Hiroaki Itamochi (Tottori University School of Medicine, Yonago, Japan; see also: ‘Establishment and characterization of human ovarian clear cell adenocarcinoma cell line (SMOV-2), and its cytotoxity by anticancer agents’, Yonamine K at al., Hum Cell., 1999, 12(3), 139-48; and ‘PPM1D Is a Potential Therapeutic Target in Ovarian Clear Cell Carcinoma’, David S. P. Tan et al., Clin Cancer Res, 2009, 15, 2269).
(§2) Representative compounds were assessed in a sulforhodamine B (SRB) proliferation assay in the cell lines shown in the Tables below, according to the following general procedure:
(§3) Cells were seeded in a 96 well plate at a number optimized for each cell line as known in the art; for example as described in Viachai et al, Nature Protocols, 2006, 1 1112-1116. Two fold dilutions of the compounds to be tested were made in culture medium so that, when diluted 5×, the final concentration in the wells was from 50 μM to 0.000191 μM (19 concentrations). A day after seeding the cells in 96 well plates, 25 μl of the compound diluted in the culture medium was added to 100 μl of the cells and incubated at 37° C. and 5% CO2 for 3 or 5 more days as required. After this time, cells were fixed by adding 10% ice cold TCA (in H2O) to 3% final concentration in the wells and by incubating at 4° C. for at least 2 h. Plates were washed 4 times in H2O and allowed to dry in the air. Added 100 μl of 0.057% SRB solution to the dried plates and incubated at room temperature for at least 30 min. Removed SRB solution from the plates and washed four times with 1% acetic acid. Plates were left overnight to dry in the air followed by addition of 100 μl of 10 mM Tris pH 10.5 to each well of the dried plates and incubation on a shaker for 5 min to solubilize the SRB. Optical density was measured at wave length of 490 nm using a plate reader and analysis performed to measure the GI50 using GraphPad PRISM.

MDAMB231 (NA) = experiment: SRB proliferation assay, MDAMB231 (non-amplified); format: cell-based; conditions: Homo sapiens, MDA-MB-231, 120 h; 5-day incubation; MDAMB231, not amplified (NA)
Source text: as §1, §2
(§4) Cells were seeded in a 96 well plate at a number optimized for each cell line as known in the art; for example as described in Viachai et al, Nature Protocols, 2006, 1 1112-1116. Two fold dilutions of the compounds to be tested were made in culture medium so that, when diluted 5×, the final concentration in the wells was from 50 μM to 0.000191 μM (19 concentrations). […] Optical density was measured at wave length of 490 nm using a plate reader and analysis performed to measure the GI50 using GraphPad PRISM.

[1] = system: Phospho-p38, Phospho-p53 S15, cleaved PARP in SMOV2 cells; experiment: Western blot analysis of biomarker modulation in SMOV2 cells; format: cell-based, human; conditions: 24 hours treatment, FIG. 1
Procedure: FIG. 1 provides an image showing the results of a Western Blot (LDS-PAGE gel) for cleaved PARP, Phospho-p53 S15, Phospho-p38, and GAPDG, confirming modulation of the biomarkers expected for PP1 MD-mediated inhibition in SMOV2 cells as described in Example 2.
Biomarker modulation by representative compounds was assessed by Western blot analysis in SMOV2 cells using the following procedure:
On day one, 3×10^5 cells were plated per well in a 6 well plate. Next day cells were treated with DMSO control or indicated concentrations of the representative compounds for 24 hours. Treated cells were lysed in complete lysis buffer (50 mM NaCl, 20 mM Tris pH7.5, 1 mM EDTA, 1 mM EGTA, 1% Triton X100, 10 mM NaF, protease Inhibitor tablet and phosphatase inhibitor cocktails) on ice for 10 min. Soluble proteins were separated by centrifugation, and protein concentration was measured using Bradford assay. Samples with equal amount of proteins were prepared and run on LDS-PAGE. Separated proteins were transferred to the nitrocellulose membrane and probed with the Phospho-p38, Phospho-p53 S15, cleaved PARP, γ-H2AX and GAPDH antibodies.

Cama1 (NA) = experiment: SRB proliferation assay, Cama1 (non-amplified); format: cell-based; conditions: Homo sapiens, CAMA-1, 120 h; 5-day incubation; Cama1, not amplified (NA)
Source text: as §1, §2, §4

SMOV2 (A) = experiment: SRB proliferation assay, SMOV2 (PPM1D amplified); format: cell-based; conditions: Homo sapiens, SMOV2, PP1MD amplified cell line (A)
Source text: as §1, §2, §3

HeLa (NA) = experiment: SRB proliferation assay, HeLa (non-amplified); format: cell-based; conditions: Homo sapiens, 120 h, 5-day incubation, not amplified (NA)
Source text: as §1, §2, §4

KPL1 (A) = experiment: SRB proliferation assay, KPL1 (amplified); format: cell-based; conditions: KPL-1, 120 h, 5-day incubation
Source text: as §1, §2, §4

MCF7 (A) = experiment: SRB proliferation assay, MCF7 (amplified); format: cell-based; conditions: MCF7a, 120 h, 5-day incubation
Source text: as §1, §2, §4

In the case of `COCCOCc1cc(F)ccc1-c1nc(-c2ccc3[nH]c(=O)[nH]c3c2)cs1` [Compound 32, 5-(2-(4-fluoro-2-((2-methoxyethoxy)methyl)phenyl)thiazol-4-yl)-1H-benzo[d]imidazol-2(3H)-one], the GI50 (TOV21G (NA)) is reported as over 10000 nM, the GI50 (MDAMB231 (NA)) is reported as over 10000 nM and the “biomarker modulation (Western blot: cleaved PARP, Phospho-p53 S15, Phospho-p38)” value [1] is reported as “modulation of the biomarkers expected for PP1MD-mediated inhibition”. It also gave a GI50 (Cama1 (NA)) of 3900 nM, a GI50 (SMOV2 (A); 72 h, 3-day incubation, read-out: GI50 3-day SMOV2 (A) SRB) of 4.8 nM and a GI50 (SMOV2 (A); 120 h, 5-day incubation, read-out: GI50 5-day SMOV2 (A) SRB) of 1.6 nM. It also gave a GI50 (HeLa (NA)) of 5600 nM, a GI50 (KPL1 (A)) of 36 nM and a GI50 (MCF7 (A)) of 4.6 nM.
